Where no end group is shown, it is not given here.
Columns and labels:
[1] = tested on: formalin-induced inflammatory pain model; design: species or system SD rats; conditions: rat, in vivo
[2] = tested on: gastrointestinal peristalsis; assay: Effect on gastrointestinal peristalsis (charcoal propulsion); conditions: 3 mg/kg, single subcutaneous injection, SD rats
hKOR = biological target: T1, hKOR (Homo sapiens, UniProt P41145); assay: Agonistic function, cAMP method, 293-KOR cells; assay type: cell-based; conditions: forskolin
T1 construct: expressed in transfected cells; host or cells: Human embryonic kidney cells 293 (293-KOR)
Method: • a. […] Prepare 8 × drug-containing solution with buffe. • c. […] Incubate for 1 h at room temperature. • j.

T1 sequence (P41145 whole entry): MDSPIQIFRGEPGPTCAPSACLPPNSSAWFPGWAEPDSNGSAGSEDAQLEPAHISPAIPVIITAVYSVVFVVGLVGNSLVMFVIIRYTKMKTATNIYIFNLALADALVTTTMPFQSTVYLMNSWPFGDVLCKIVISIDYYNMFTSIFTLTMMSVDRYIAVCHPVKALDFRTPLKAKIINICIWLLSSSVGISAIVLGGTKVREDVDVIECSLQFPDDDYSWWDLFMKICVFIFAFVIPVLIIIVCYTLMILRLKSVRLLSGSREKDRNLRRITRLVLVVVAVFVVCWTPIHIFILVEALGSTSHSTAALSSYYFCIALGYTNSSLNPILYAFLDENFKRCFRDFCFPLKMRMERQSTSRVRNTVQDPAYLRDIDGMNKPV

| Compound | MPE% [1] [%] | effect on the gastrointestinal peristalsis in rats (charcoal propulsion rate) [2] | EC50 (hKOR) [nM] | Emax (hKOR) [%] |
| --- | --- | --- | --- | --- |
| CN1CC[C@]23c4c5ccc(O)c4O[C@H]2[C@@H](O)C=C[C@H]3[C@H]1C5 [Morphine] | 75.9±28.9 | significant inhibitory effect | – | – |
| YGGFLRRIRP [Dynorphin A1-10] | – | – | 0.65 | 102 |

Source: EP4768477A1 (Yichang Humanwell Pharmaceutical Co., Ltd., priority 2024, dated 2025)
